Legend:
Assay type in all cases: cell-based
[1] = biological target: T1, mannose 6-phosphate receptor (Homo sapiens, UniProt P11717); assay: Competitive inhibition test for mannose 6-phosphate; conditions: ML-II cell, FIG. 4
T1 construct: a mannose 6-phosphate receptor on the cell surface; endogenous in cells; host or cells: ML-II cell

normal skin fibroblast = assay: Enzyme activities in culture supernatants of normal cell + various reagents; conditions: for GALC enzyme activity in culture supernatant / total β-Hex enzyme activity in culture supernatant / α-Fuc enzyme activity in culture supernatant / α-Gal enzyme activity in culture supernatant / α-Gluc enzyme activity in culture supernatant / α-Iduro enzyme activity in culture supernatant / α-Man enzyme activity in culture supernatant / β-Gal enzyme activity in culture supernatant / β-Gluc enzyme activity in culture supernatant / β-Glucuro enzyme activity in culture supernatant / β-Hex A enzyme activity in culture supernatant: NH4Cl 20 mM, CQ 20 uM, Bafilo 20 nM; for excretion of group of lysosomal enzymes compared with no reagent added: Tables 1 and 2
Description: In a culture dish with a diameter of 10 cm, a normal skin fibroblast was cultured in a DMEM medium containing 10% FBS (fetal bovine serum) and a recommended amount of an antibiotic and/or an antibacterial agent [Gibco (registered trade name) Antibiotic-Antimycotic, Life Technologies] (hereinafter, referred to as “a standard culture medium”) until the cell became confluent. To the cultured normal skin fibroblast, ammonium chloride was added in such an amount that the concentration of ammonium chloride became 20 mM in the culture medium. Then, the cell was cultured. Seven days after, a culture supernatant was collected, and filtered with a 0.2 μm sterilizing filter to remove large debris and living cells. After the filtration, the activities of lysosomal enzymes contained in the supernatant were measured by a method as described later.
To confirm that the lysosomal enzyme group thus obtained contained lysosomal enzymes, the culture supernatant obtained after addition of ammonium chloride and culture was subjected to measurement of the activities of lysosomal enzymes. As controls, a culture supernatant of a normal skin fibroblast that was cultured without addition of ammonium chloride, and a culture supernatant of an ML-II patient-derived skin fibroblast (hereinafter, referred to as “an ML-II cell”) that was cultured without addition of ammonium chloride were used to measure the activities of lysosomal enzymes in the culture supernatant.
(§1) The activities of lysosomal enzymes were measured by a standard method using an artificial 4-methylumbelliferyl substrate. Briefly, a sample was incubated with the artificial substrate at 37° C. for 1 hour in an acidic phosphate or citrate buffer, and fluorescence was measured on a microplate reader at an excitation wavelength of 365 nm and an emission wavelength of 450 nm. For galactocerebrosidase, 6-hexadecanoylamino-4-methylumbelliferyl β-D-galactopyranoside (Slater and Frith Ltd.) was used as a substrate, and fluorescence was measured at an excitation wavelength of 385 nm and an emission wavelength of 450 nm. The enzyme activities were calculated as nmol/h/μL.
In a culture dish with a diameter of 10 cm, a normal skin fibroblast was cultured in a standard culture medium until the cell became confluent. […] Then, the cell was cultured. Five days after and 7 days after, a culture supernatant was collected, and filtered with a 0.2 μm sterilizing filter to remove large debris and living cells. After the filtration, the activities of lysosomal enzymes contained in the supernatant were measured by the same method as described in Example 1. As a control, a culture supernatant of a normal skin fibroblast that was cultured in a standard culture medium with no addition of any reagents was used to measure the activities of lysosomal enzymes in the culture supernatant.
In Tables 1 and 2, β-Gal means β-galactosidase, total β-Hex means total β-hexosaminidase, β-Hex A means β-hexosaminidase A, β-Gluc means β-glucosidase, α-Man means α-mannosidase, α-Fuc means α-fucosidase, α-Gluc means α-glucosidase, α-Gal means α-galactosidase, β-Glucuro means β-glucuronidase, α-L-Iduro means α-L-iduronidase, and GALC means galactocerebrosidase. SCM means a standard culture medium with no addition of any reagents. […] Bafilo means bafilomycin A1. The enzyme activity is expressed as nmol/h/μL.

COS-1 cell = assay: Enzyme activities in culture supernatant of COS-1 cell + NH4Cl
Description: as §1
In a culture dish with a diameter of 10 cm, a COS-1 cell was cultured in a standard culture medium until the cell became confluent. To the cultured COS-1 cell, ammonium chloride was added in such an amount that the concentration became 20 mM in the culture medium. Then, the cell was cultured. Three days after, a culture supernatant was collected, and filtered with a 0.2 μm sterilizing filter to remove large debris and living cells. After the filtration, the activities of lysosomal enzymes contained in the supernatant were measured by the same method as described in Example 1. As a control, a culture supernatant of a COS-1 cell that was cultured in a standard culture medium with no addition of ammonium chloride was used to measure the activities of lysosomal enzymes in the culture supernatant.
In Table 3, β-Gal means β-galactosidase, total β-Hex means total β-hexosaminidase, β-Hex A means β-hexosaminidase A, β-Gluc means β-glucosidase, α-Man means α-mannosidase, α-Fuc means α-fucosidase, α-Gluc means α-glucosidase, α-Gal means α-galactosidase, β-Glucuro means β-glucuronidase, α-L-Iduro means α-L-iduronidase, and GALC means galactocerebrosidase. NH4Cl(−) means a culture supernatant in the case of no addition of ammonium chloride. NH4Cl(+) means a culture supernatant in the case of addition of ammonium chloride. The enzyme activity is expressed as nmol/h/μL.

T1 sequence (P11717 41-2491): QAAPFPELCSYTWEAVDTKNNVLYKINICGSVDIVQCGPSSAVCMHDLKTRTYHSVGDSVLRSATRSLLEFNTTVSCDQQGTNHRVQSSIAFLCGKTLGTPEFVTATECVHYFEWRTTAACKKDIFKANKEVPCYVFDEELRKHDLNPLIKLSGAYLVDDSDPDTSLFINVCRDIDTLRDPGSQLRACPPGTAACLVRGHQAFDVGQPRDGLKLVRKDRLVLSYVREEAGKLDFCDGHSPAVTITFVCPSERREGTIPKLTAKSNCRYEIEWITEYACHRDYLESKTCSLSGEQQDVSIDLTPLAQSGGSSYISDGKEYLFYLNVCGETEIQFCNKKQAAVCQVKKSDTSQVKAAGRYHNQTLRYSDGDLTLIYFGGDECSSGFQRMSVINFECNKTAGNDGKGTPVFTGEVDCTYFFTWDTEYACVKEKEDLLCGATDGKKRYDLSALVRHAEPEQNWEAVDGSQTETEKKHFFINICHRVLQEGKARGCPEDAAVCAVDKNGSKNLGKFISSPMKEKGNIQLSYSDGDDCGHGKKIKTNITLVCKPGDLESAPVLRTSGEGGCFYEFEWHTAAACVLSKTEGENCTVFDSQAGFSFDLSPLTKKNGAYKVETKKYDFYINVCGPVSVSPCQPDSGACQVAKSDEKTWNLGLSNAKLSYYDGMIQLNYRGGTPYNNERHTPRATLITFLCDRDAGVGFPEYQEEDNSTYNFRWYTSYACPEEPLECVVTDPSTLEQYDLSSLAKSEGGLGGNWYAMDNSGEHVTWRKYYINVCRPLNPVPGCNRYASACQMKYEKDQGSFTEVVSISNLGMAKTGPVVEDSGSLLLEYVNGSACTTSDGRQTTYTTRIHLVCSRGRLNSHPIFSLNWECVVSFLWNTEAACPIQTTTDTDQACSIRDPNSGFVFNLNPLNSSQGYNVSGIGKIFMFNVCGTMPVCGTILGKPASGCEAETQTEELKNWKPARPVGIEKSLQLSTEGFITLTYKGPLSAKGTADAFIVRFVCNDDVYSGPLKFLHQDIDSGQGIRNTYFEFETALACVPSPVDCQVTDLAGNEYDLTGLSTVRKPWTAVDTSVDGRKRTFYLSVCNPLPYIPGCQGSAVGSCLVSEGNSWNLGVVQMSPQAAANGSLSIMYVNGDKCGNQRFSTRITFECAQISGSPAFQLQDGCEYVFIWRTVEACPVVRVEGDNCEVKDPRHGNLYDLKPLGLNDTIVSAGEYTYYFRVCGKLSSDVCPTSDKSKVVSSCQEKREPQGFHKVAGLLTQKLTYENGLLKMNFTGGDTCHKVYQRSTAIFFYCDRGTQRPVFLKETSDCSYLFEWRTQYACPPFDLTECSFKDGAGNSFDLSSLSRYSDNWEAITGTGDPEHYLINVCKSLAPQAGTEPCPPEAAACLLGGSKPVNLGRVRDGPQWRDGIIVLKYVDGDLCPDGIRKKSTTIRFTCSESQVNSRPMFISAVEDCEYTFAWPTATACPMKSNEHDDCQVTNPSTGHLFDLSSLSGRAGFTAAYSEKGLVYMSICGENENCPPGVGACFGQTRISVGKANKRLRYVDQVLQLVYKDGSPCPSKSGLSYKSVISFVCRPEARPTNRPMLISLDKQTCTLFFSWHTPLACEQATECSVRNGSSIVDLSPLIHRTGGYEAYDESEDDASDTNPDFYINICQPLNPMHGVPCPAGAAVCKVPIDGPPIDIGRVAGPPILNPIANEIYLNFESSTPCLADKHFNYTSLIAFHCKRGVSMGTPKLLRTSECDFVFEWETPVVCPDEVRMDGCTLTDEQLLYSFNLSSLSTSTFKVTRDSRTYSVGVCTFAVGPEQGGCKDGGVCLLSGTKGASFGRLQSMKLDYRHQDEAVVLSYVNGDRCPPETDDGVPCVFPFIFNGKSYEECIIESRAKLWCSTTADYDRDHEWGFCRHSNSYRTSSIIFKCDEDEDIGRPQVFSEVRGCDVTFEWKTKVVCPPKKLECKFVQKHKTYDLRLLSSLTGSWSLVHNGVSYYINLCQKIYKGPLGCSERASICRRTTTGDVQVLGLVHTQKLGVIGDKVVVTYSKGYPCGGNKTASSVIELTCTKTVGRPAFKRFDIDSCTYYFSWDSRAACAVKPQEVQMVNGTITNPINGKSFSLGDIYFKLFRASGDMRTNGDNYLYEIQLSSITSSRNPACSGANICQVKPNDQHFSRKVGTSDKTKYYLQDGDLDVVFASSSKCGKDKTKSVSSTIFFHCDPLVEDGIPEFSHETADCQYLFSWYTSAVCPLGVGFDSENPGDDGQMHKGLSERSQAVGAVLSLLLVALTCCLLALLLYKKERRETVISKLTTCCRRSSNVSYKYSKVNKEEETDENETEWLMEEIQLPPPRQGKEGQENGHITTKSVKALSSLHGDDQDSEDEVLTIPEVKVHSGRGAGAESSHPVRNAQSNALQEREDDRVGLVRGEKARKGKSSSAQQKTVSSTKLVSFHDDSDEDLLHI

| SMILES | GALC enzyme activity in culture supernatant (normal skin fibroblast; Day 5, normal cell) [nmol/h/µL] | total β-Hex enzyme activity in culture supernatant (normal skin fibroblast; Day 5, normal cell) [nmol/h/µL] | α-Fuc enzyme activity in culture supernatant (normal skin fibroblast; Day 5, normal cell) [nmol/h/µL] | α-Gal enzyme activity in culture supernatant (normal skin fibroblast; Day 5, normal cell) [nmol/h/µL] | α-Gluc enzyme activity in culture supernatant (normal skin fibroblast; Day 5, normal cell) [nmol/h/µL] | α-Iduro enzyme activity in culture supernatant (normal skin fibroblast; Day 5, normal cell) [nmol/h/µL] | α-Man enzyme activity in culture supernatant (normal skin fibroblast; Day 5, normal cell) [nmol/h/µL] | β-Gal enzyme activity in culture supernatant (normal skin fibroblast; Day 5, normal cell) [nmol/h/µL] | β-Gluc enzyme activity in culture supernatant (normal skin fibroblast; Day 5, normal cell) [nmol/h/µL] | β-Glucuro enzyme activity in culture supernatant (normal skin fibroblast; Day 5, normal cell) [nmol/h/µL] | β-Hex A enzyme activity in culture supernatant (normal skin fibroblast; Day 5, normal cell) [nmol/h/µL] | GALC enzyme activity in culture supernatant (normal skin fibroblast; Day 7, normal cell) [nmol/h/µL] | total β-Hex enzyme activity in culture supernatant (normal skin fibroblast; Day 7, normal cell) [nmol/h/µL] | α-Fuc enzyme activity in culture supernatant (normal skin fibroblast; Day 7, normal cell) [nmol/h/µL] | α-Gal enzyme activity in culture supernatant (normal skin fibroblast; Day 7, normal cell) [nmol/h/µL] | α-Gluc enzyme activity in culture supernatant (normal skin fibroblast; Day 7, normal cell) [nmol/h/µL] | α-Iduro enzyme activity in culture supernatant (normal skin fibroblast; Day 7, normal cell) [nmol/h/µL] | α-Man enzyme activity in culture supernatant (normal skin fibroblast; Day 7, normal cell) [nmol/h/µL] | β-Gal enzyme activity in culture supernatant (normal skin fibroblast; Day 7, normal cell) [nmol/h/µL] | excretion of group of lysosomal enzymes compared with no reagent added (normal skin fibroblast; normal skin fibroblast) | further results |
| --- | --- | --- | --- | --- | --- | --- | --- | --- | --- | --- | --- | --- | --- | --- | --- | --- | --- | --- | --- | --- | --- |
| O=C[C@@H](O)[C@@H](O)[C@H](O)[C@H](O)COP(=O)(O)O [mannose 6-phosphate] |  |  |  |  |  |  |  |  |  |  |  |  |  |  |  |  |  |  |  |  | β-glucosidase in mannose 6-phosphate competitive inhibition test [1]: not to be affected; intracellular uptake of lysosomal enzymes ([1]; mannose 6-phosphate 0, 5 or 10 mM with lysosomal enzyme group sample): concentration-dependently and competitively inhibited |
| Cl.N [NH4Cl, ammonium chloride] | 0.55 | 736.1 | 6.68 | 0 | 1.92 | 3.61 | 137.1 | 8.20 | 4.53 | 3.85 | 67.0 | 0.50 | 1239.2 | 5.70 | 0.84 | 4.51 | 13.90 | 200.0 | 11.65 | excreted in larger amounts | β-Gluc enzyme activity in culture supernatant (normal skin fibroblast; Day 7, normal cell): 5.39 nmol/h/µL; β-Glucuro enzyme activity in culture supernatant (normal skin fibroblast; Day 7, normal cell): 12.78 nmol/h/µL; β-Hex A enzyme activity in culture supernatant (normal skin fibroblast; Day 7, normal cell): 157.9 nmol/h/µL; kinds of lysosomal enzymes contained in culture supernatant (normal skin fibroblast; normal skin fibroblast, ammonium chloride 20 mM, seven days, FIG. 1): at least 10 kinds; excretion of group of lysosomal enzymes compared with no addition of ammonium chloride (COS-1 cell; COS-1 cell, Table 3): excreted in larger amounts; GALC enzyme activity in culture supernatant (COS-1 cell; Day 3, COS1, NH4Cl 20 mM): 0.41 nmol/h/µL; total β-Hex enzyme activity in culture supernatant (COS-1 cell; Day 3, COS1, NH4Cl 20 mM): 799.8 nmol/h/µL; α-Fuc enzyme activity in culture supernatant (COS-1 cell; Day 3, COS1, NH4Cl 20 mM): 24.2 nmol/h/µL; α-Gal enzyme activity in culture supernatant (COS-1 cell; Day 3, COS1, NH4Cl 20 mM): 10.60 nmol/h/µL; α-Gluc enzyme activity in culture supernatant (COS-1 cell; Day 3, COS1, NH4Cl 20 mM): 7.96 nmol/h/µL; α-Iduro enzyme activity in culture supernatant (COS-1 cell; Day 3, COS1, NH4Cl 20 mM): 13.60 nmol/h/µL; α-Man enzyme activity in culture supernatant (COS-1 cell; Day 3, COS1, NH4Cl 20 mM): 178.0 nmol/h/µL; β-Gal enzyme activity in culture supernatant (COS-1 cell; Day 3, COS1, NH4Cl 20 mM): 25.26 nmol/h/µL; β-Gluc enzyme activity in culture supernatant (COS-1 cell; Day 3, COS1, NH4Cl 20 mM): 6.64 nmol/h/µL; β-Glucuro enzyme activity in culture supernatant (COS-1 cell; Day 3, COS1, NH4Cl 20 mM): 21.37 nmol/h/µL; β-Hex A enzyme activity in culture supernatant (COS-1 cell; Day 3, COS1, NH4Cl 20 mM): 85.9 nmol/h/µL |
| CCN(CC)CCCC(C)Nc1ccnc2cc(Cl)ccc12 (centres unmarked) [CQ, chloroquine] |  |  |  |  |  |  |  |  |  |  |  |  |  |  |  |  |  |  |  | excreted in larger amounts |  |
| CO/C1=C\C(C)=C\[C@@H](C)[C@@H](O)[C@@H](C)C/C(C)=C/C=C/[C@H](OC)[C@@H]([C@@H](C)[C@@H](O)[C@H](C)[C@@]2(O)C[C@@H](O)[C@H](C)[C@@H](C(C)C)O2)OC1=O [Bafilo, bafilomycin A1] | 0.64 | 437.7 | 3.49 | 0 | 1.13 | 0.57 | 100.4 | 4.65 | 3.97 | 4.07 | 18.9 | 0.69 | 300.5 | 3.97 | 0.91 | 2.44 | 0.64 | 123.9 | 2.93 | excreted in larger amounts | β-Gluc enzyme activity in culture supernatant (normal skin fibroblast; Day 7, normal cell): 8.65 nmol/h/µL; β-Glucuro enzyme activity in culture supernatant (normal skin fibroblast; Day 7, normal cell): 8.03 nmol/h/µL; β-Hex A enzyme activity in culture supernatant (normal skin fibroblast; Day 7, normal cell): 22.5 nmol/h/µL |
